Four sequences from patent publication US20070128217A1 (priority 2003, published 2007) can be followed below.

Experiment [1] concerns rabbit serum obtained by immunizing a rabbit with the SARS-CoV strain Frankfurt 1. It counts as binding. Further details: Binding of a rabbit serum to linear peptides / Binding of a rabbit serum to looped peptides / Rabbit serum linear peptides / Rabbit serum looped peptides / Binding of a rabbit serum to linear peptides of protein N of SARS-CoV Urbani (Rabbit serum linear peptides) / Binding of a rabbit serum to looped/cyclic peptides of protein N of SARS-CoV Urbani (Rabbit serum looped peptides): unit not given here.

For experiment [2], the system named is antibodies in sera from SARS patients (sera 1a, 1b, 2, 6, 37, 62, London, SARS-yellow, SARS-green). It counts as binding, human. Further details: Binding of serum 6 to linear peptides of protein X1 of SARS-CoV Urbani / Binding of serum 37 to linear peptides of protein X1 of SARS-CoV Urbani / Binding of serum 6 to looped/cyclic peptide (PEPSCAN-ELISA) / Binding of serum 37 to looped/cyclic peptide (PEPSCAN-ELISA) / Binding of serum 37 to looped/cyclic peptides of protein X1 of SARS-CoV Urbani / Binding of serum 6 to linear peptides of protein X2 / Binding of serum 37 to linear peptides of protein X2 / Binding of serum 37 to looped/cyclic peptides of protein X2 of SARS-CoV Urbani / Binding of serum 6 to linear peptides of protein M of SARS-CoV Urbani / Binding of serum 37 to linear peptides of protein M of SARS-CoV Urbani / Binding of serum 6 to looped/cyclic peptides of protein M of SARS-CoV Urbani / Binding of serum 37 to looped/cyclic peptides of protein M of SARS-CoV Urbani / Binding of serum 6 to linear peptides of protein X3 of SARS-CoV Urbani / Binding of serum 37 to linear peptides of protein X3 of SARS-CoV Urbani / Binding of serum 37 to looped/cyclic peptides of protein X3 of SARS-CoV Urbani / Binding of serum 6 to linear peptides of protein X4 of SARS-CoV Urbani / Binding of serum 37 to linear peptides of protein X4 of SARS-CoV Urbani / Binding of serum 37 to looped/cyclic peptides of protein X4 of SARS-CoV Urbani / Binding of serum 6 to linear peptides of protein X5 of SARS-CoV Urbani / Binding of serum 37 to linear peptides of protein X5 of SARS-CoV Urbani / Binding of serum 37 to looped/cyclic peptides of protein X5 of SARS-CoV Urbani / Binding of serum 6 to linear peptides of protein N of SARS-CoV Urbani / Binding of serum 37 to linear peptides of protein N of SARS-CoV Urbani / Binding of serum 6 to linear peptide (PEPSCAN-ELISA) / Binding of serum 1a to looped/cyclic peptides of protein N of SARS-CoV Urbani / Binding of serum 1b to looped/cyclic peptides of protein N of SARS-CoV Urbani / Binding of serum 2 to looped/cyclic peptides of protein N of SARS-CoV Urbani / Binding of serum 6 to looped/cyclic peptides of protein N of SARS-CoV Urbani / Binding of serum 37 to looped/cyclic peptides of protein N of SARS-CoV Urbani / Binding of serum 62 to looped/cyclic peptides of protein N of SARS-CoV Urbani / Binding of serum London to looped/cyclic peptides of protein N of SARS-CoV Urbani / Binding of serum SARS-green to looped/cyclic peptides of protein N of SARS-CoV Urbani: unit not given here.

For experiment [3], the system named is control sera (pooled serum of ten healthy LUMC hospital workers; commercial negative donor pooled serum from the Dutch bloodbank). It counts as binding, human. Further details: Binding of Control serum LUMC to linear peptides / Binding of Control serum Blood-bank to linear peptides / Binding of Control serum LUMC to looped peptides / Binding of Control Serum Blood-Bank to Looped peptides / Binding of Control serum LUMC to linear peptides of the protein M of SARS-CoV Urbani / Binding of Control serum Blood-bank to linear peptides of the protein M of SARS-CoV Urbani / Binding of Control serum LUMC to looped peptides of the protein M of SARS-CoV Urbani / Binding of Control Serum Blood-Bank to Looped peptides of the protein M of SARS-CoV Urbani: unit not given here.

With VLLKEPCPSGTYEGN, in experiment [1], the “Rabbit serum linear peptides” value is listed as 0.4 and the “Rabbit serum looped peptides” value was 0.3. Also, in experiment [2], the “Binding of serum 1a to linear peptides of protein X4 of SARS-CoV Urbani” value turned out to be 0.8, the “Binding of serum 1a to looped/cyclic peptides of protein X4 of SARS-CoV Urbani” value is given as 0.8, the “Binding of serum 1b to linear peptides of protein X4 of SARS-CoV Urbani” value is 0.7 and the “Binding of serum 1b to looped/cyclic peptides of protein X4 of SARS-CoV Urbani” value is reported as 0.7. For the same sequence, in experiment [2], the “Binding of serum 2 to linear peptides of protein X4 of SARS-CoV Urbani” value came to 0.4, the “Binding of serum 2 to looped/cyclic peptides of protein X4 of SARS-CoV Urbani” value is on record as 0.6, the “Binding of serum 6 to linear peptides of protein X4 of SARS-CoV Urbani” value worked out at 0.7 and the “Binding of serum 6 to looped/cyclic peptides of protein X4 of SARS-CoV Urbani” value came out at 0.7. For the same sequence, in experiment [2], the “Binding of serum 37 to linear peptides of protein X4 of SARS-CoV Urbani” value came to 0.7, the “Binding of serum 37 to looped/cyclic peptides of protein X4 of SARS-CoV Urbani” value was found to be 0.8, the “Binding of serum 62 to linear peptides of protein X4 of SARS-CoV Urbani” value is reported as 0.8 and the “Binding of serum 62 to looped/cyclic peptides of protein X4 of SARS-CoV Urbani” value is listed as 0.7. In addition, in experiment [2], the “Binding of serum London to linear peptides of protein X4 of SARS-CoV Urbani” value came to 0.8, the “Binding of serum London to looped/cyclic peptides of protein X4 of SARS-CoV Urbani” value came out at 0.3, the “Binding of serum SARS-green to linear peptides of protein X4 of SARS-CoV Urbani” value turned out to be 0.6 and the “Binding of serum SARS-green to looped/cyclic peptides of protein X4 of SARS-CoV Urbani” value came out at 0.5. Also, in experiment [2], the “Binding of serum SARS-yellow to linear peptides of protein X4 of SARS-CoV Urbani” value was 0.1 and the “Binding of serum SARS-yellow to looped/cyclic peptides of protein X4 of SARS-CoV Urbani” value is listed as 0.4. In addition, in experiment [3], the “Binding of Control Serum Blood-Bank to Looped peptides” value is on record as 0.9, the “Binding of Control serum Blood-bank to linear peptides” value came to 0.8, the “Binding of Control serum LUMC to linear peptides” value is 0.7 and the “Binding of Control serum LUMC to looped peptides” value came out at 0.8.

On to VLPFHRWHTMVQTCT, for which, in experiment [1], the “Rabbit serum linear peptides” value amounted to 0.6 and the “Rabbit serum looped peptides” value was 0.0. Moreover, in experiment [2], the “Binding of serum 1a to linear peptides of protein X5 of SARS-CoV Urbani” value amounted to 0.8, the “Binding of serum 1a to looped/cyclic peptides of protein X5 of SARS-CoV Urbani” value is 0.7, the “Binding of serum 1b to linear peptides of protein X5 of SARS-CoV Urbani” value was determined as 0.6 and the “Binding of serum 1b to looped/cyclic peptides of protein X5 of SARS-CoV Urbani” value was found to be 0.5. In experiment [2], the “Binding of serum 2 to linear peptides of protein X5 of SARS-CoV Urbani” value is 0.7, the “Binding of serum 2 to looped/cyclic peptides of protein X5 of SARS-CoV Urbani” value amounted to 0.7, the “Binding of serum 6 to linear peptides of protein X5 of SARS-CoV Urbani” value is reported as 0.5 and the “Binding of serum 6 to looped/cyclic peptides of protein X5 of SARS-CoV Urbani” value was 0.4. Moreover, in experiment [2], the “Binding of serum 37 to linear peptides of protein X5 of SARS-CoV Urbani” value was 0.7, the “Binding of serum 37 to looped/cyclic peptides of protein X5 of SARS-CoV Urbani” value amounted to 0.5, the “Binding of serum 62 to linear peptides of protein X5 of SARS-CoV Urbani” value is on record as 0.7 and the “Binding of serum 62 to looped/cyclic peptides of protein X5 of SARS-CoV Urbani” value is on record as 0.3. Besides, in experiment [2], the “Binding of serum London to linear peptides of protein X5 of SARS-CoV Urbani” value was found to be 0.8, the “Binding of serum London to looped/cyclic peptides of protein X5 of SARS-CoV Urbani” value was found to be 0.2, the “Binding of serum SARS-green to linear peptides of protein X5 of SARS-CoV Urbani” value is on record as 0.6 and the “Binding of serum SARS-green to looped/cyclic peptides of protein X5 of SARS-CoV Urbani” value stood at 1.4. Moreover, in experiment [2], the “Binding of serum SARS-yellow to linear peptides of protein X5 of SARS-CoV Urbani” value is recorded as 0.4 and the “Binding of serum SARS-yellow to looped/cyclic peptides of protein X5 of SARS-CoV Urbani” value is given as 0.3. Also, in experiment [3], the “Binding of Control Serum Blood-Bank to Looped peptides” value turned out to be 0.6, the “Binding of Control serum Blood-bank to linear peptides” value turned out to be 0.6, the “Binding of Control serum LUMC to linear peptides” value turned out to be 0.5 and the “Binding of Control serum LUMC to looped peptides” value came to 0.0.

On to VPLRGTIVTRPLMES, for which, in experiment [1], the “Rabbit serum linear peptides” value is recorded as 0.1 and the “Rabbit serum looped peptides” value is reported as 0.6. Moreover, in experiment [2], the “Binding of serum 1a to linear peptides of protein M of SARS-CoV Urbani” value amounted to 0.7, the “Binding of serum 1b to linear peptides of protein M of SARS-CoV Urbani” value is reported as 0.6, the “Binding of serum 2 to linear peptides of protein M of SARS-CoV Urbani” value stood at 0.7 and the “Binding of serum 6 to linear peptides of protein M of SARS-CoV Urbani” value is 0.4. In experiment [2], the “Binding of serum 37 to linear peptides of protein M of SARS-CoV Urbani” value turned out to be 0.6, the “Binding of serum 62 to linear peptides of protein M of SARS-CoV Urbani” value amounted to 0.5, the “Binding of serum London to linear peptides of protein M of SARS-CoV Urbani” value came out at 0.4 and the “Binding of serum SARS-green to linear peptides of protein M of SARS-CoV Urbani” value amounted to 0.5. Moreover, in experiment [2], the “Binding of serum SARS-yellow to linear peptides of protein M of SARS-CoV Urbani” value was found to be 0.4; the “Recognition of the peptide by sera of SARS-CoV infected individuals, and form (linear, looped/cyclic) in which it is recognized” value was “recognized in looped/cyclic form”. Also, in experiment [3], the “Binding of Control Serum Blood-Bank to Looped peptides of the protein M of SARS-CoV Urbani” value was 0.6, the “Binding of Control serum Blood-bank to linear peptides of the protein M of SARS-CoV Urbani” value was found to be 0.9, the “Binding of Control serum LUMC to linear peptides of the protein M of SARS-CoV Urbani” value was 0.6 and the “Binding of Control serum LUMC to looped peptides of the protein M of SARS-CoV Urbani” value is on record as 0.7.

Take VQIHTIDGSSGVANP: in experiment [1], the “Binding of a rabbit serum to linear peptides” value came to 0.1 and the “Binding of a rabbit serum to looped peptides” value worked out at 0.4. Moreover, in experiment [2], the “Binding of serum 1a to linear peptides of protein X1 of SARS-CoV Urbani” value came to 0.7, the “Binding of serum 1a to looped/cyclic peptides of protein X1 of SARS-CoV Urbani” value was 0.4, the “Binding of serum 1b to linear peptides of protein X1 of SARS-CoV Urbani” value turned out to be 0.5 and the “Binding of serum 1b to looped/cyclic peptides of protein X1 of SARS-CoV Urbani” value is listed as 0.4. For the same sequence, in experiment [2], the “Binding of serum 2 to linear peptides of protein X1 of SARS-CoV Urbani” value amounted to 0.6, the “Binding of serum 2 to looped/cyclic peptides of protein X1 of SARS-CoV Urbani” value was determined as 0.3, the “Binding of serum 6 to linear peptides of protein X1 of SARS-CoV Urbani” value came out at 0.6 and the “Binding of serum 6 to looped/cyclic peptides of protein X1 of SARS-CoV Urbani” value stood at 0.3. Moreover, in experiment [2], the “Binding of serum 37 to linear peptides of protein X1 of SARS-CoV Urbani” value is on record as 0.7, the “Binding of serum 37 to looped/cyclic peptides of protein X1 of SARS-CoV Urbani” value was found to be 0.4, the “Binding of serum 62 to linear peptides of protein X1 of SARS-CoV Urbani” value came out at 0.6 and the “Binding of serum 62 to looped/cyclic peptides of protein X1 of SARS-CoV Urbani” value was 0.5. In experiment [2], the “Binding of serum London to linear peptides of protein X1 of SARS-CoV Urbani” value was 0.3, the “Binding of serum London to looped/cyclic peptides of protein X1 of SARS-CoV Urbani” value was 0.2, the “Binding of serum SARS-green to linear peptides of protein X1 of SARS-CoV Urbani” value came to 0.2 and the “Binding of serum SARS-green to looped/cyclic peptides of protein X1 of SARS-CoV Urbani” value worked out at 0.3. For the same sequence, in experiment [2], the “Binding of serum SARS-yellow to linear peptides of protein X1 of SARS-CoV Urbani” value is listed as 0.4 and the “Binding of serum SARS-yellow to looped/cyclic peptides of protein X1 of SARS-CoV Urbani” value stood at 0.1. In experiment [3], the “Binding of Control Serum Blood-Bank to Looped peptides” value was 0.3, the “Binding of Control serum Blood-bank to linear peptides” value was determined as 0.5, the “Binding of Control serum LUMC to linear peptides” value is given as 0.5 and the “Binding of Control serum LUMC to looped peptides” value is 0.4.
